This assay addresses T1, Androgen Receptor (Homo sapiens, UniProt P10275).
T1 construct: endogenous in cells; host or cells: VCaP cells
T1 sequence (P10275 1-920): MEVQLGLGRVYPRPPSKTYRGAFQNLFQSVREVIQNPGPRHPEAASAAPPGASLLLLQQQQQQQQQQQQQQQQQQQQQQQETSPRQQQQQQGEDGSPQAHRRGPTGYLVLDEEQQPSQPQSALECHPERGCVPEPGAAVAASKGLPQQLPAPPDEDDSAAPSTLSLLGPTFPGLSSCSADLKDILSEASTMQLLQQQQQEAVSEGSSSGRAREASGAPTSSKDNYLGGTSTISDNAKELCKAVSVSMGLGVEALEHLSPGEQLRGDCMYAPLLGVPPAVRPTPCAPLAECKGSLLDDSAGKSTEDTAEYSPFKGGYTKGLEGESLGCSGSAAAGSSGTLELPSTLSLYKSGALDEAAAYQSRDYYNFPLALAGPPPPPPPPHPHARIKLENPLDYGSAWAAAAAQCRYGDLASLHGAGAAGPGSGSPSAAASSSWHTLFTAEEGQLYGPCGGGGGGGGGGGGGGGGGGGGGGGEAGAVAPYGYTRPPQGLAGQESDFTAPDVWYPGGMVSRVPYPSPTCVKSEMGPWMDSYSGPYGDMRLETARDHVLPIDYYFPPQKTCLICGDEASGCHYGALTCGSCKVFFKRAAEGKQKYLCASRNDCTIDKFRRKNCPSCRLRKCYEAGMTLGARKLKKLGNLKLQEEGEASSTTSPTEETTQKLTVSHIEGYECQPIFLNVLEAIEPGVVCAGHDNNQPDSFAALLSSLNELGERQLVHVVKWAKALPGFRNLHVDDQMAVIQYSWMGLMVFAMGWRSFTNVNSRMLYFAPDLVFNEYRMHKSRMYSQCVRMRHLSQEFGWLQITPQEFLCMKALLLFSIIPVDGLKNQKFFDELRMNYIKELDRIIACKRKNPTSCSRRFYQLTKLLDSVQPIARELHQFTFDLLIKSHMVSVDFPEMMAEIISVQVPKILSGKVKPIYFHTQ
The assay is described as follows: Androgen Receptor ELISA assay (PathScan AR ELISA) in VCaP cells: AR degradation, Dmax and DC50. The assay is classed as cell-based. In a few lines: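 VCaP cells, 30,000/well, grown ≥3 days in phenol red-free RPMI with 5% charcoal-stripped FBS; compound added in 0.1% DMSO with 0.1 nM R1881, 7 half-log doses, 24 h. Lysate AR quantified by PathScan sandwich ELISA, HRP/TMB read at 450 nm, giving DC50 and Dmax.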
For orientation: ELISA stands for enzyme-linked immunosorbent assay.

Setting [1] is: VCaP cells; Table 35; read-out: VCaP DC50.
[2] abbreviates: VCaP, VCaP cells; Table 35; read-out: VCaP Dmax (%).
Where [3] appears, read: read-out: VCaP DC50; VCaP cells; Table 35.

The values that follow come from patent publication US11427548B2 (Arvinas Operations, Inc., priority 2015, dated 2022).

The term DC50 denotes the concentration giving 50% degradation. Usually Dmax stands for the largest share of the target that was removed.

Like-named read-outs stand apart in the source and are kept apart here.

For the molecule `C[C@H](NC(=O)[C@@H]1C[C@@H](O)CN1C(=O)[C@@H](NC(=O)COCCCCOc1ccc(C(=O)N[C@H]2C(C)(C)[C@H](Oc3ccc(C#N)c(Cl)c3)C2(C)C)cc1)C(C)(C)C)c1ccc(C#N)cc1` [Example 548], under setting [1], the 50% degradation concentration (DC50) was less than 50 nM. The greatest degradation seen (Dmax) under setting [2] lay in the range of 51 to 70%.

With `C[C@H](NC(=O)[C@@H]1C[C@@H](O)CN1C(=O)[C@@H](NC(=O)COCCOc1ccc(-c2ccc(C(=O)N[C@H]3C(C)(C)[C@H](Oc4ccc(C#N)c(Cl)c4)C3(C)C)cc2)cc1)C(C)(C)C)c1ccc(C#N)cc1` [Example 549], the DC50 under setting [1] was less than 50 nM. Moreover, under setting [2], the maximal degradation (Dmax) was more than 71%.

Regarding `CC(C)(C)[C@H](NC(=O)COCCOc1ccc(-c2ccc(C(=O)N[C@H]3C(C)(C)[C@H](Oc4ccc(C#N)c(Cl)c4)C3(C)C)cc2)cc1)C(=O)N1C[C@H](O)C[C@H]1C(=O)NCc1ccc(C#N)cc1` [Example 550], under setting [1], the 50% degradation concentration (DC50) is less than 50 nM. The maximal degradation (Dmax) under setting [2] was more than 71%.

As for `CC(C)(C)[C@H](NC(=O)COCCCCCNc1ccc(C(=O)N[C@H]2C(C)(C)[C@H](Oc3ccc(C#N)c(Cl)c3)C2(C)C)cn1)C(=O)N1C[C@H](O)C[C@H]1C(=O)NCc1ccc(C#N)cc1` [Example 551], under setting [1], the 50% degradation concentration (DC50) was less than 50 nM. The Dmax under setting [2] lay in the range of 51 to 70%.

In the case of `CC(C)(C)[C@H](NC(=O)COCCCCCNc1ccc(C(=O)N[C@H]2C(C)(C)[C@H](Oc3ccc(C#N)c(Cl)c3)C2(C)C)cc1)C(=O)N1C[C@H](O)C[C@H]1C(=O)NCc1ccc(Cl)cc1` [Example 552], the DC50 under setting [1] is less than 50 nM. In addition, the maximal degradation (Dmax) under setting [2] was in the range of 51 to 70%.

As for `Cc1ncsc1-c1ccc(CNC(=O)[C@@H]2C[C@@H](O)CN2C(=O)[C@@H](NC(=O)COCCNc2ccc(-c3ccc(C(=O)N[C@H]4C(C)(C)[C@H](Oc5ccc(C#N)c(Cl)c5)C4(C)C)cc3)cn2)C(C)(C)C)cc1` [Example 553], the half-maximal degradation concentration (DC50) under setting [1] is less than 50 nM. Moreover, under setting [2], the maximal degradation (Dmax) is more than 71%.

Take `Cc1ncsc1-c1ccc(CNC(=O)[C@@H]2C[C@@H](O)CN2C(=O)[C@@H](NC(=O)COCCCCNc2ccc(-c3ccc(N4C(=S)N(c5ccc(C#N)c(C(F)(F)F)c5)C(=O)C4(C)C)cc3)cn2)C(C)(C)C)cc1` [Example 554]: the Dmax (VCaP, read-out: VCaP Dmax (%)) lay in the range of 51 to 70%. Besides, under setting [3], the half-maximal degradation concentration (DC50) is less than 50 nM.

As to `CC(C)(C)[C@H](NC(=O)COCCCCCNc1ccc(C(=O)N[C@H]2C(C)(C)[C@H](Oc3ccc(C#N)c(Cl)c3)C2(C)C)cc1)C(=O)N1C[C@H](O)C[C@H]1C(=O)NCc1ccc(-c2scnc2C2CC2)cc1` [Example 555], the DC50 under setting [1] is less than 50 nM. Besides, the maximal degradation (Dmax) under setting [2] is more than 71%.

For the molecule `CC(C)c1ncsc1-c1ccc(CNC(=O)[C@@H]2C[C@@H](O)CN2C(=O)[C@@H](NC(=O)COCCCCCNc2ccc(C(=O)N[C@H]3C(C)(C)[C@H](Oc4ccc(C#N)c(Cl)c4)C3(C)C)cc2)C(C)(C)C)cc1` [Example 556], under setting [1], the DC50 is less than 50 nM. The greatest degradation seen (Dmax) under setting [2] was more than 71%.

Consider `Cc1ncsc1-c1ccc([C@H](C)NC(=O)[C@@H]2C[C@@H](O)CN2C(=O)[C@@H](NC(=O)COC[C@H](O)[C@@H](O)COc2ccc(-c3ccc(N4C(=S)N(c5ccc(C#N)c(C(F)(F)F)c5)C(=O)C4(C)C)cc3)cc2)C(C)(C)C)cc1` [Example 559], for which the Dmax (VCaP, read-out: VCaP Dmax (%)) is more than 71%. Moreover, the DC50 under setting [3] is less than 50 nM.

Consider `Cc1ncsc1-c1ccc(CNC(=O)[C@@H]2C[C@@H](O)CN2C(=O)[C@@H](NC(=O)COC[C@@H](O)[C@H](O)COc2ccc(C(=O)N[C@H]3C(C)(C)[C@H](Oc4ccc(C#N)c(Cl)c4)C3(C)C)cc2)C(C)(C)C)cc1` [Example 563], for which, under setting [1], the DC50 is less than 50 nM. In addition, under setting [2], the Dmax lay in the range of 51 to 70%.

For `Cc1ncsc1-c1ccc(CNC(=O)[C@@H]2C[C@@H](O)CN2C(=O)[C@@H](NC(=O)COC[C@H]2C[C@H](Oc3ccc(C(=O)N[C@H]4C(C)(C)[C@H](Oc5ccc(C#N)c(Cl)c5)C4(C)C)cc3)C2)C(C)(C)C)cc1` [Example 564], the half-maximal degradation concentration (DC50) under setting [1] was less than 50 nM. For the same molecule, the maximal degradation (Dmax) under setting [2] is more than 71%.

With `Cc1ncsc1-c1ccc(CNC(=O)[C@@H]2C[C@@H](O)CN2C(=O)[C@@H](NC(=O)COC[C@H]2C[C@H](Oc3ccc(-c4ccc(N5C(=S)N(c6ccc(C#N)c(C(F)(F)F)c6)C(=O)C5(C)C)cc4)cc3)C2)C(C)(C)C)cc1` [Example 565], the maximal degradation (Dmax) (VCaP, read-out: VCaP Dmax (%)) is more than 71%. For the same molecule, the DC50 under setting [3] is less than 50 nM.

For the molecule `Cc1ncsc1-c1ccc(CNC(=O)[C@@H]2C[C@@H](O)CN2C(=O)[C@@H](NC(=O)COC[C@@H](O)[C@H](O)COc2ccc(-c3ccc(N4C(=S)N(c5ccc(C#N)c(C(F)(F)F)c5)C(=O)C4(C)C)cc3)cc2)C(C)(C)C)cc1` [Example 566], where the note is “VCaP, read-out: VCaP Dmax (%)”, the greatest degradation seen (Dmax) lay in the range of 51 to 70%. Moreover, the half-maximal degradation concentration (DC50) under setting [3] was less than 50 nM.

`Cc1ncsc1-c1ccc(CNC(=O)[C@@H]2C[C@@H](O)CN2C(=O)[C@@H](NC(=O)COC[C@H](O)[C@@H](O)COc2ccc(-c3ccc(N4C(=S)N(c5ccc(C#N)c(C(F)(F)F)c5)C(=O)C4(C)C)cc3)cc2)C(C)(C)C)cc1` [Example 567]: the Dmax (VCaP, read-out: VCaP Dmax (%)) is more than 71%. Besides, the 50% degradation concentration (DC50) under setting [3] is less than 50 nM.

Take `CC(C)(C)[C@H](NC(=O)COCCCCOc1ccc(C(=O)N[C@H]2C(C)(C)[C@H](Oc3ccc(C#N)c(Cl)c3)C2(C)C)cc1)C(=O)N1C[C@H](O)C[C@H]1C(=O)NCc1ccc(-n2cccn2)cc1` [Example 568]: under setting [1], the DC50 was less than 50 nM. Moreover, the Dmax under setting [2] was more than 71%.

Regarding `C[C@H](NC(=O)[C@@H]1C[C@@H](O)CN1C(=O)[C@@H](NC(=O)COCCCCOc1ccc(C(=O)N[C@H]2C(C)(C)[C@H](Oc3ccc(C#N)c(Cl)c3)C2(C)C)cc1)C(C)(C)C)c1ccc(-c2ncon2)cc1` [Example 569], the 50% degradation concentration (DC50) under setting [1] was less than 50 nM. For the same molecule, the greatest degradation seen (Dmax) under setting [2] is more than 71%.

Regarding `C[C@H](NC(=O)[C@@H]1C[C@@H](O)CN1C(=O)[C@@H](NC(=O)COCCCCOc1ccc(C(=O)N[C@H]2C(C)(C)[C@H](Oc3ccc(C#N)c(Cl)c3)C2(C)C)cc1)C(C)(C)C)c1ccc(-c2nncs2)cc1` [Example 570], the 50% degradation concentration (DC50) under setting [1] was less than 50 nM. Besides, under setting [2], the greatest degradation seen (Dmax) is more than 71%.

Turning to `CC(C)(C)[C@H](NC(=O)COCCCCOc1ccc(-c2ccc(N3C(=S)N(c4cnc(C#N)c(C(F)(F)F)c4)C(=O)C3(C)C)cc2)cc1)C(=O)N1C[C@H](O)C[C@H]1C(=O)NCc1ccc(C#N)cc1` [Example 571], the half-maximal degradation concentration (DC50) under setting [1] is less than 50 nM. Also, the greatest degradation seen (Dmax) under setting [2] was more than 71%.

For `C[C@H](NC(=O)[C@@H]1C[C@@H](O)CN1C(=O)[C@@H](NC(=O)COCCCCOc1ccc(C(=O)N[C@H]2C(C)(C)[C@H](Oc3ccc(C#N)c(Cl)c3)C2(C)C)cc1)C(C)(C)C)c1ccc(Cl)cc1` [Example 572], the DC50 under setting [1] is less than 50 nM. Besides, under setting [2], the Dmax was more than 71%.

As to `CC(C)(C)[C@H](NC(=O)COCCOc1ccc(-c2ccc(C(=O)N[C@H]3C(C)(C)[C@H](Oc4ccc(C#N)c(Cl)c4)C3(C)C)cc2)cc1)C(=O)N1C[C@H](O)C[C@H]1C(=O)NCc1ccc(Cl)cc1` [Example 573], under setting [1], the DC50 is more than 501 nM. For the same molecule, the Dmax under setting [2] fell in the range of 51 to 70%.

For `Cc1ncsc1-c1ccc([C@H](C)NC(=O)[C@@H]2C[C@@H](O)CN2C(=O)[C@@H](NC(=O)COC[C@@H](O)[C@H](O)COc2ccc(-c3ccc(N4C(=S)N(c5ccc(C#N)c(C(F)(F)F)c5)C(=O)C4(C)C)cc3)cc2)C(C)(C)C)cc1` [Example 574], under “VCaP, read-out: VCaP Dmax (%)”, the greatest degradation seen (Dmax) is more than 71%. The half-maximal degradation concentration (DC50) under setting [3] is less than 50 nM.

As to `Cc1ncsc1-c1ccc([C@H](C)NC(=O)[C@@H]2C[C@@H](O)CN2C(=O)[C@@H](NC(=O)COC[C@@H](O)CCOc2ccc(-c3ccc(N4C(=S)N(c5ccc(C#N)c(C(F)(F)F)c5)C(=O)C4(C)C)cc3)cc2)C(C)(C)C)cc1` [Example 575], the maximal degradation (Dmax) (VCaP, read-out: VCaP Dmax (%)) was more than 71%. Under setting [3], the 50% degradation concentration (DC50) was less than 50 nM.

Turning to `Cc1ncsc1-c1ccc([C@H](C)NC(=O)[C@@H]2C[C@@H](O)CN2C(=O)[C@@H](NC(=O)COC[C@H](O)CCOc2ccc(-c3ccc(N4C(=S)N(c5ccc(C#N)c(C(F)(F)F)c5)C(=O)C4(C)C)cc3)cc2)C(C)(C)C)cc1` [Example 576], for the setting “VCaP, read-out: VCaP Dmax (%)”, the Dmax was more than 71%. Under setting [3], the DC50 is less than 50 nM.

On to `Cc1ncsc1-c1ccc(CNC(=O)[C@@H]2C[C@@H](O)CN2C(=O)[C@@H](NC(=O)COC[C@H](O)[C@@H](O)COc2ccc(C(=O)N[C@H]3C(C)(C)[C@H](Oc4ccc(C#N)c(Cl)c4)C3(C)C)cc2)C(C)(C)C)cc1` [Example 577], for which the DC50 under setting [1] is less than 50 nM. In addition, the Dmax under setting [2] is more than 71%.
